From patent US12649750B2, “Macrocyclic compounds, compositions, and methods of using thereof” (Sionna Therapeutics Inc., priority 2022, dated 2026)

Assays:
NBD1 = target: T1, NBD1 (Homo sapiens, UniProt P13569); assay: Aggregation analysis using differential static light scattering (DSLS), thermal stability of NBD1 (ΔTagg); type: binding; details: ΔTagg versus DMSO control, NBD1 0.2 mg/ml
T1 construct: Purified recombinant NBD1 was produced using previously described methods; made in house
In short: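 Purified recombinant NBD1 at 0.2 mg/ml in 50 mM Tris-HCl, 150 mM NaCl, 5 mM MgCl2, 2 mM ATP, 2 mM DTT, pH 7.6, 1% glycerol, with compound, heated 1° C./min to 70° C. under light-scattering monitoring. Tagg taken at curve inflection; ΔTagg is compound Tagg minus mean DMSO-control Tagg, binned A (≤5° C.), B (>5-≤10° C.), C (>10-≤25° C.).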

CFTR = target: T2, CFTR (Homo sapiens, UniProt P13569, DEL508-508); assay: TECC24 AUC fold over DMSO @10 μM, CFTR-mediated transepithelial chloride transport in CF-HBE cells; type: cell-based; details: test agent AUC divided by DMSO vehicle AUC, primary CF-HBE cells, ΔF508 homozygous donor, 48 hours incubation
T2 construct: Primary human bronchial epithelial cells from a ΔF508 homozygous CF donor; host or cells: primary human bronchial epithelial cells (CF-HBE), ΔF508 homozygous donor
In short: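 ΔF508-homozygous primary bronchial epithelial cells incubated 48 h at 36.5° C with compound (10 μM) in IL-13-containing medium, then TECC24 current-clamp recording in pH 7.4 Hepes saline with benzamil 10 μM, forskolin 10 μM, then CFTR inhibitor-172 20 μM. Equivalent Cl− current AUC between forskolin and inhibitor, expressed as fold over DMSO.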

T1 sequence (P13569 423-646 limits assumed): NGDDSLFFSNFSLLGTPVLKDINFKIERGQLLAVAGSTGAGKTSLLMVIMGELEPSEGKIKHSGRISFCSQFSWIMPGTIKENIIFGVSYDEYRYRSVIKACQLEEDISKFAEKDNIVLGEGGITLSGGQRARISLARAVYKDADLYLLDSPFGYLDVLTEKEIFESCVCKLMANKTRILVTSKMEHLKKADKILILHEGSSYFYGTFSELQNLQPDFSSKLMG
T2 sequence (P13569 with tags, fused parts or gaps DEL508-508): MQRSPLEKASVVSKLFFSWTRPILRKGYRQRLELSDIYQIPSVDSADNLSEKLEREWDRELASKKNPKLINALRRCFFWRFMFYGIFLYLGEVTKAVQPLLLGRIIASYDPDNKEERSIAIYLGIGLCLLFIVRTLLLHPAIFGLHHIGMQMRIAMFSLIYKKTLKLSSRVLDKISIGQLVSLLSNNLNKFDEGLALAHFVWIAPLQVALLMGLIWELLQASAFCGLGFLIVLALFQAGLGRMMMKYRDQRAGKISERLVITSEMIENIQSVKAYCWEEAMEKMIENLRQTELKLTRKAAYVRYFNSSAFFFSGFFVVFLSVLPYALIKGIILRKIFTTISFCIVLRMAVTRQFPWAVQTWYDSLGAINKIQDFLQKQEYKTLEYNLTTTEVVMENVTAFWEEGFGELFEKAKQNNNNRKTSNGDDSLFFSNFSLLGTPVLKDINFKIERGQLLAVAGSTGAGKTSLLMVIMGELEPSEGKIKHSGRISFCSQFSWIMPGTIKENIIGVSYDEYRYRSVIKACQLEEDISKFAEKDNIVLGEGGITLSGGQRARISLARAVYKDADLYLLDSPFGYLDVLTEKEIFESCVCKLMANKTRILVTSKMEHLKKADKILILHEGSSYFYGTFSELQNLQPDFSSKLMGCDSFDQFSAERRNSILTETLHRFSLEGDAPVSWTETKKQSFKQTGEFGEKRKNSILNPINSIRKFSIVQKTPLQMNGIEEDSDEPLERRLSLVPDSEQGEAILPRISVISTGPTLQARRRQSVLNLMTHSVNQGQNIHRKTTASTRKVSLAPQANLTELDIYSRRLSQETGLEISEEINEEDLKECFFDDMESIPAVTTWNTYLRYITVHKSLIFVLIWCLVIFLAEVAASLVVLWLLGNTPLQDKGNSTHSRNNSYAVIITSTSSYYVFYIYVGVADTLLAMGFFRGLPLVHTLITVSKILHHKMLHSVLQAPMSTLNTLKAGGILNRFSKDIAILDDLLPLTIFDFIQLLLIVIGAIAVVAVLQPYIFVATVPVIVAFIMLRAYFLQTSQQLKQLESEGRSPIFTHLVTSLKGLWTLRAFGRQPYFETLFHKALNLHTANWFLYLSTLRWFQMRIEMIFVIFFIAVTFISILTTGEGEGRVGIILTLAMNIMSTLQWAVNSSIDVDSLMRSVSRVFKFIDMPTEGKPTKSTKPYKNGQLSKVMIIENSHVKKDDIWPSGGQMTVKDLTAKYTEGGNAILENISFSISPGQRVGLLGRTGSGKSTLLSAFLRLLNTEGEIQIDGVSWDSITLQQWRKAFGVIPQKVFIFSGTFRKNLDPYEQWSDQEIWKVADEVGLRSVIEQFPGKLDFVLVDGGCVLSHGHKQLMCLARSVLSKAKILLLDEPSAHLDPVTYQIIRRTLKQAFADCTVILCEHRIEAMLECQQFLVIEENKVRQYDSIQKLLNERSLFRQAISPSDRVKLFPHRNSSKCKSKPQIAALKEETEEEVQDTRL

Question: `C[C@@H](Cc1cccc([C@@]2(C)CCCC(C)(C)CS(=O)(=O)CCc3c(c(F)c(F)c4[nH]ccc34)Sc3ccnc(c3)-c3nc2nn3C)c1)C(=O)O` [Compound 268, (2S)-3-[3-[(6R)-21,22-Difluoro-3,6,10,10-tetramethyl-12,12-dioxo-12λ6,24-dithia-3,4,19,28,30-pentazapentacyclo[23.3.1.12,5.015,23.016,20]triaconta-1(29),2(30),4,15,17,20,22,25,27-nonaen-6-yl]phenyl]-2-methyl-propanoic Acid] was tested. Which “DSLS 3D (100 μM ΔT)” value (NBD1) did it give?
Answer: Its value is “C (a value greater than 10 °C and less than or equal to 25 °C is marked “C”)”.

Question: And the “TECC (AUC, 10 μM)” value (CFTR)?
Answer: Its value is “B (a value between 12-20 is marked “B”)”.

Question: With `C[C@H](Cc1cccc([C@@]2(C)CCCC(C)(C)CS(=O)(=O)CCc3c(c(F)c(F)c4[nH]ccc34)Sc3ccnc(c3)-c3nc2nn3C)c1)C(=O)O` [Compound 270, (2R)-3-[3-[(6R)-21,22-difluoro-3,6,10,10-tetramethyl-12,12-dioxo-12λ6,24-dithia-3,4,19,28,30-pentazapentacyclo[23.3.1.12,5.015,23.016,20]triaconta-1(29),2(30),4,15,17,20,22,25,27-nonaen-6-yl]phenyl]-2-methyl-propanoic Acid] as the compound, how does the “DSLS 3D (100 μM ΔT)” value (NBD1) read?
Answer: Its value is “C (a value greater than 10 °C and less than or equal to 25 °C is marked “C”)”.

Question: And the “TECC (AUC, 10 μM)” value (CFTR)?
Answer: Its value is “B (a value between 12-20 is marked “B”)”.

Question: Which “DSLS 3D (100 μM ΔT)” value (NBD1) does the source give for `Cn1nc2nc1-c1cc(ccn1)Sc1c(F)cc3[nH]ccc3c1CCS(=O)(=O)CC(C)(C)CCC[C@]2(C)c1cccc(CC2(C(=O)O)CC2)c1` [Compound 272, 1-[[3-[(6R)-22-Fluoro-3,6,10,10-tetramethyl-12,12-dioxo-12λ6,24-dithia-3,4,19,28,30-pentazapentacyclo[23.3.1.12,5.015,23.016,20]triaconta-1(29),2(30),4,15,17,20,22,25,27-nonaen-6-yl]phenyl]methyl]cyclopropanecarboxylic Acid] here?
Answer: The value was “C (a value greater than 10 °C and less than or equal to 25 °C is marked “C”)”.

Question: And the “TECC (AUC, 10 μM)” value (CFTR)?
Answer: Its value is “C (a value between 20 and 80 is marked “C”)”.

Question: What does the source list for `Cn1nc2nc1-c1cc(ccn1)Sc1c(F)cc3[nH]ccc3c1CCS(=O)(=O)CC(C)(C)CCC[C@]2(C)c1cccc(CC(C)(C)C(=O)O)c1` [Compound 273, 3-[3-[(6R)-22-Fluoro-3,6,10,10-tetramethyl-12,12-dioxo-12λ6,24-dithia-3,4,19,28,30-pentazapentacyclo[23.3.1.12,5.015,23.016,20]triaconta-1(29),2(30),4,15,17,20,22,25,27-nonaen-6-yl]phenyl]-2,2-dimethyl-propanoic Acid]?
Answer: DSLS 3D (100 μM ΔT) (NBD1): C (a value greater than 10 °C and less than or equal to 25 °C is marked “C”); TECC (AUC, 10 μM) (CFTR): B (a value between 12-20 is marked “B”)

Question: What does the source list for `Cn1nc2nc1-c1cc(ccn1)Sc1c(F)c(F)c3[nH]ccc3c1CCS(=O)(=O)CC(C)(C)CCC[C@]2(C)c1cccc(CC(C)(C)C(=O)O)c1` [Compound 275, 3-[3-[(6R)-21,22-Difluoro-3,6,10,10-tetramethyl-12,12-dioxo-12λ6,24-dithia-3,4,19,28,30-pentazapentacyclo[23.3.1.12,5.015,23.016,20]triaconta-1(29),2(30),4,15,17,20,22,25,27-nonaen-6-yl]phenyl]-2,2-dimethyl-propanoic Acid]?
Answer: DSLS 3D (100 μM ΔT) (NBD1): C (a value greater than 10 °C and less than or equal to 25 °C is marked “C”); TECC (AUC, 10 μM) (CFTR): C (a value between 20 and 80 is marked “C”)

Question: With `Cn1nc2nc1-c1cc(ccn1)Sc1c(F)c(F)c3[nH]ccc3c1CCS(=O)(=O)CC(C)(C)CCC[C@]2(C)c1cccc(CCC(=O)O)c1` [Compound 276, 3-[3-[(6R)-21,22-difluoro-3,6,10,10-tetramethyl-12,12-dioxo-12λ6,24-dithia-3,4,19,28,30-pentazapentacyclo[23.3.1.12,5.015,23.016,20]triaconta-1(29),2(30),4,15,17,20,22,25,27-nonaen-6-yl]phenyl]propanoic Acid] as the compound, how does the “DSLS 3D (100 μM ΔT)” value (NBD1) read?
Answer: Its value is “C (a value greater than 10 °C and less than or equal to 25 °C is marked “C”)”.

Question: What about the “TECC (AUC, 10 μM)” value (CFTR) of the same compound?
Answer: Its value is “B (a value between 12-20 is marked “B”)”.

Question: For `C[C@@H](Cc1cccc([C@@]2(C)CCCC(C)(C)CS(=O)(=O)CCc3c(c(F)cc4[nH]ccc34)Sc3ccnc(c3)-c3nc2nn3C)c1F)C(=O)O` [Compound 277, (2S)-3-[2-fluoro-3-[(6R)-22-fluoro-3,6,10,10-tetramethyl-12,12-dioxo-12λ6,24-dithia-3,4,19,28,30-pentazapentacyclo[23.3.1.12,5.015,23.016,20]triaconta-1(29),2(30),4,15,17,20,22,25,27-nonaen-6-yl]phenyl]-2-methyl-propanoic acid], which “DSLS 3D (100 μM ΔT)” value (NBD1) is on record?
Answer: Its value is “C (a value greater than 10 °C and less than or equal to 25 °C is marked “C”)”.

Question: And the “TECC (AUC, 10 μM)” value (CFTR)?
Answer: Its value is “A (a TECC value less than 12 is marked “A”)”.

Question: How did the “DSLS 3D (100 μM ΔT)” value (NBD1) turn out when `Cn1nc2nc1-c1cc(ccn1)[S+]([O-])c1c(F)cc3[nH]ccc3c1CCS(=O)(=O)CC(C)(C)CCC[C@]2(C)c1cccc(CC(C)(C)C(=O)O)c1` (stereo partly drawn) [Compound 278, 3-[3-[(6R)-22-fluoro-3,6,10,10-tetramethyl-12,12,24-trioxo-12λ6,24λ4-dithia-3,4,19,28,30-pentazapentacyclo[23.3.1.12,5.015,23.016,20]triaconta-1(29),2(30),4,15,17,20,22,25,27-nonaen-6-yl]phenyl]-2,2-dimethyl-propanoic Acid] was run?
Answer: Its value is “C (a value greater than 10 °C and less than or equal to 25 °C is marked “C”)”.

Question: And the “TECC (AUC, 10 μM)” value (CFTR)?
Answer: Its value is “C (a value between 20 and 80 is marked “C”)”.

Question: How did the “DSLS 3D (100 μM ΔT)” value (NBD1) turn out when `Cn1nc2nc1-c1cc(ccc1F)Sc1c(F)c(F)c3[nH]ccc3c1CCS(=O)(=O)CC(C)(C)CCC[C@]2(C)c1cccc(CC(C)(C)C(=O)O)c1` [Compound 279, 2,2-Dimethyl-3-[3-[(6R)-21,22,28-trifluoro-3,6,10,10-tetramethyl-12,12-dioxo-12λ6,24-dithia-3,4,19,30-tetrazapentacyclo[23.3.1.12,5.015,23.016,20]triaconta-1(29),2(30),4,15,17,20,22,25,27-nonaen-6-yl]phenyl]propanoic Acid] was run?
Answer: Its value is “C (a value greater than 10 °C and less than or equal to 25 °C is marked “C”)”.

Question: What about the “TECC (AUC, 10 μM)” value (CFTR) of the same compound?
Answer: Its value is “C (a value between 20 and 80 is marked “C”)”.

Question: `Cn1nc2nc1-c1cc(ccc1F)[S+]([O-])c1c(F)c(F)c3[nH]ccc3c1CCS(=O)(=O)CC(C)(C)CCC[C@]2(C)c1cccc(CC(C)(C)C(=O)O)c1` (stereo partly drawn) [Compound 280, 2,2-dimethyl-3-[3-[(6R)-21,22,28-trifluoro-3,6,10,10-tetramethyl-12,12,24-trioxo-12λ6,24λ4-dithia-3,4,19,30-tetrazapentacyclo[23.3.1.12,5.015,23.016,20]triaconta-1(29),2(30),4,15,17,20,22,25,27-nonaen-6-yl]phenyl]propanoic Acid] was tested. Which “DSLS 3D (100 μM ΔT)” value (NBD1) did it give?
Answer: The value was “C (a value greater than 10 °C and less than or equal to 25 °C is marked “C”)”.

Question: What about the “TECC (AUC, 10 μM)” value (CFTR) of the same compound?
Answer: Its value is “C (a value between 20 and 80 is marked “C”)”.

Question: How did the “DSLS 3D (100 μM ΔT)” value (NBD1) turn out when `Cn1nc2nc1-c1cc(ccn1)Sc1c(F)c(F)c3[nH]ccc3c1CCS(=O)(=O)CC(C)(C)CCC[C@]2(C)c1cccc(C[C@@H](O)CO)c1` [Compound 282, (2R)-3-[3-[(6R)-21,22-difluoro-3,6,10,10-tetramethyl-12,12-dioxo-12λ6,24-dithia-3,4,19,28,30-pentazapentacyclo[23.3.1.12,5.015,23.016,20]triaconta-1(29),2(30),4,15,17,20,22,25,27-nonaen-6-yl]phenyl]propane-1,2-diol] was run?
Answer: The value was “C (a value greater than 10 °C and less than or equal to 25 °C is marked “C”)”.

Question: And the “TECC (AUC, 10 μM)” value (CFTR)?
Answer: The value was “C (a value between 20 and 80 is marked “C”)”.

Question: Which results are given for `C[C@@H](Cc1cccc([C@@]2(C)CCCC(C)(C)CS(=O)(=O)CCc3c(c(F)cc4[nH]ccc34)[S+]([O-])c3ccnc(c3)-c3nc2nn3C)c1F)C(=O)O` (stereo partly drawn) [Compound 283, (2S)-3-[2-fluoro-3-[(6R)-22-fluoro-3,6,10,10-tetramethyl-12,12,24-trioxo-12λ6,24λ4-dithia-3,4,19,28,30-pentazapentacyclo[23.3.1.12,5.015,23.016,20]triaconta-1(29),2(30),4,15,17,20,22,25,27-nonaen-6-yl]phenyl]-2-methyl-propanoic Acid]?
Answer: DSLS 3D (100 μM ΔT) (NBD1): C (a value greater than 10 °C and less than or equal to 25 °C is marked “C”); TECC (AUC, 10 μM) (CFTR): C (a value between 20 and 80 is marked “C”)

Question: How did the “DSLS 3D (100 μM ΔT)” value (NBD1) turn out when `Cn1nc2nc1-c1cc(ccc1F)[S+]([O-])c1c(F)cc3[nH]ccc3c1CCS(=O)(=O)CC(C)(C)CCC[C@]2(C)c1cccc(C[C@H](O)CO)c1` (stereo partly drawn) [Compound 286, (2S)-3-[3-[(6R)-22,28-difluoro-3,6,10,10-tetramethyl-12,12,24-trioxo-12λ6,24λ4-dithia-3,4,19,30-tetrazapentacyclo[23.3.1.12,5.015,23.016,20]triaconta-1(29),2(30),4,15,17,20,22,25,27-nonaen-6-yl]phenyl]propane-1,2-diol] was run?
Answer: Its value is “C (a value greater than 10 °C and less than or equal to 25 °C is marked “C”)”.

Question: What about the “TECC (AUC, 10 μM)” value (CFTR) of the same compound?
Answer: The value was “C (a value between 20 and 80 is marked “C”)”.
